Earlier results on 1 compound are cited in patent publication US20250311736A1, “SEED TREATMENT METHODS FOR INCREASING YIELD IN CROP PLANTS” (BAYER AKTIENGESELLSCHAFT, priority 2021, published 2025).

In the series the test system is plants. The note with it: Tavares et al., 2011; Suwitchayanon et al., 2019.

Regarding `O=C(/C=C/C=C/c1ccc2c(c1)OCO2)N1CCCCC1` [piperine], the “phytotoxic effect on plants (inhibits their growth)” value is “phytotoxic effect”.
